The text below walks through data of patent publication US20040009973A1, “Novel potassium channels modulators” (4SC AG, priority 2002, published 2004).

Test [1] addresses T1, BK potassium channel, cloned hSlo (α-hSlo and β-bSlo) in CHO cells (Homo sapiens, UniProt Q12791).
T1 construct: expressed in transfected cells; host or cells: CHO cells, permanently transfected
Briefly: Em-Assay: membrane potential with voltage sensitive dye DiBAC(4)3, fluorescence plate reader. It is filed as cell-based. The note with it: compound 50 μM; NS004 25 or 50 μM; hSlo transfected CHO cells; change in DiBAC(4)3 fluorescence intensity. In a few lines:
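CHO cells stably expressing α-hSlo and β-bSlo were loaded 30-60 min at 37° C with 2 μM DiBAC(4)3 in PBS/20 mM HEPES pH 7.4. Fluorescence (485/520 nm) was read every 60 s: 7 min baseline, then 15 min after compound. Background-subtracted, normalized change was expressed as a ratio to reference NS004.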

Test [2] addresses BK currents, cloned α-hSlo and β-bSlo in CHO cells (Homo sapiens, UniProt Q12791). As to the kind of experiment: Electrophysiological studies: whole-cell patch-clamp of BK currents. It is filed as cell-based. The following applies: compound 20 μM, steady-state BK current, free internal Ca2+ 1×10^−6M. The protocol: Electrophysiological Studies:
CHO cells permanently transfected with cloned α-hSlo and β-bSlo were maintained as described above and used for electrophysiological characterisation, The whole-cell configuration of the patch-clamp technique was used to determine the effect of modulators on BK currents in these cells. The cell line expressing functional BK currents (Zhou et al., Pflügers Arch. 436, p.725 (1998)) were plated onto glass cover slips with a density of 1-5×10^4 cells/cover slip, incubated (37° C., 5% CO2) and used for patch-clamp experiments within 24-48 h. Cells were bathed in mammalian ringer solutions containing (in mM): 160NaCl, 4.5KCl, 2CaCl2, 1MgCl2, 10 HEPES, adjusted to pH 7.4, 290-310 mOsm. The internal pipette solution contained (in mM): 160KCl, 2CaCl2, 1MgCl2, 10 HEPES, EGTA was added to reach a free [Ca^2+]internal=1×10^−6M, adjusted to pH 7.2, 290-310 mOsm. Borosilicate pipettes with a resistance of 2-3 MΩ were filled with the internal solution and mounted on an appropriate holder. Prior to measurements a recording chamber was mounted onto the cell-plated cover slips and the cells were perfused with a simple syringe driven perfusion system. Compounds were added in the final concentration ([…]) to the bath solution using the same system. An EPC-9 patch-clamp amplifier with Pulse and PulseFit software (HEKA) was used to record and analyze currents.
After addition of the compounds to the bath solution their modulating effect was determined by the increase or decrease of specific BK currents after reaching steady-state relative to the BK current before application of drugs (see Table II).
In general terms: In patch-clamp work, channel activity is measured electrically.

T1 sequence (Q12791 1-1178 isoform Q12791-5): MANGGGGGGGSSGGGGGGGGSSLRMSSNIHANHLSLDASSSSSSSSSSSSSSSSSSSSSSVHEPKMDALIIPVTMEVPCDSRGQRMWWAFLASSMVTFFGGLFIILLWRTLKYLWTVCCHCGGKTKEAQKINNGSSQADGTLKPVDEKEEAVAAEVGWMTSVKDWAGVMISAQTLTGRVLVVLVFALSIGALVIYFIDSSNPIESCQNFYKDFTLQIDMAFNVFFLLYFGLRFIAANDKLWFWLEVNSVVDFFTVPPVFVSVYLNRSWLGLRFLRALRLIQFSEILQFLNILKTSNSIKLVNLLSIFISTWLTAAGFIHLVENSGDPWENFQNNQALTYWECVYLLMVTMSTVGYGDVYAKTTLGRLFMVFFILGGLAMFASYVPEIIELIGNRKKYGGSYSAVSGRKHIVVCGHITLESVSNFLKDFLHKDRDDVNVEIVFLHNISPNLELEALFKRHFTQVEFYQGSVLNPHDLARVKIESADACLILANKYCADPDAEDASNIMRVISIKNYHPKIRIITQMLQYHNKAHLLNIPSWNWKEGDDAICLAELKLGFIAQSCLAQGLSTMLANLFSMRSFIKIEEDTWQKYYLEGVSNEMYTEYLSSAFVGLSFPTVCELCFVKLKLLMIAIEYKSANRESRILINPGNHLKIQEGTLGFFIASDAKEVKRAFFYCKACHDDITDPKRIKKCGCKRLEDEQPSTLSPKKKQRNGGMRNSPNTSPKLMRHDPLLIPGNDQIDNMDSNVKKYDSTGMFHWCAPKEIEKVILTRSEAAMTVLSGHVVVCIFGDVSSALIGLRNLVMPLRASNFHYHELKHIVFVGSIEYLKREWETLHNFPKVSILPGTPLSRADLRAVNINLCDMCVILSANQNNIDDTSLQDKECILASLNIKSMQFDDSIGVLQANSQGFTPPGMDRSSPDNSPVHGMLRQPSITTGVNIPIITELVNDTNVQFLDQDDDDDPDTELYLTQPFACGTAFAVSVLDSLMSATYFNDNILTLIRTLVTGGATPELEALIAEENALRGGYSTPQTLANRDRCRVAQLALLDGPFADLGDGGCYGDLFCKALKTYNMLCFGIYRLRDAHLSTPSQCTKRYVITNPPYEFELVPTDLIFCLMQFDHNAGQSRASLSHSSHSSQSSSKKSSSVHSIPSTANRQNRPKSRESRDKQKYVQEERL
T1 sequence (Q28067 2-191 partner limits assumed): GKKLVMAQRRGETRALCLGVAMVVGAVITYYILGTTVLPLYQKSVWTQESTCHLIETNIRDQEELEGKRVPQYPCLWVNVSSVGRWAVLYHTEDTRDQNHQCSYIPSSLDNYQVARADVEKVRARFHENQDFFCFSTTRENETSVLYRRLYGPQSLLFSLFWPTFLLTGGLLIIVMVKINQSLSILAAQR
Chain of BK currents, cloned α-hSlo and β-bSlo in CHO cells (Q12791 whole entry): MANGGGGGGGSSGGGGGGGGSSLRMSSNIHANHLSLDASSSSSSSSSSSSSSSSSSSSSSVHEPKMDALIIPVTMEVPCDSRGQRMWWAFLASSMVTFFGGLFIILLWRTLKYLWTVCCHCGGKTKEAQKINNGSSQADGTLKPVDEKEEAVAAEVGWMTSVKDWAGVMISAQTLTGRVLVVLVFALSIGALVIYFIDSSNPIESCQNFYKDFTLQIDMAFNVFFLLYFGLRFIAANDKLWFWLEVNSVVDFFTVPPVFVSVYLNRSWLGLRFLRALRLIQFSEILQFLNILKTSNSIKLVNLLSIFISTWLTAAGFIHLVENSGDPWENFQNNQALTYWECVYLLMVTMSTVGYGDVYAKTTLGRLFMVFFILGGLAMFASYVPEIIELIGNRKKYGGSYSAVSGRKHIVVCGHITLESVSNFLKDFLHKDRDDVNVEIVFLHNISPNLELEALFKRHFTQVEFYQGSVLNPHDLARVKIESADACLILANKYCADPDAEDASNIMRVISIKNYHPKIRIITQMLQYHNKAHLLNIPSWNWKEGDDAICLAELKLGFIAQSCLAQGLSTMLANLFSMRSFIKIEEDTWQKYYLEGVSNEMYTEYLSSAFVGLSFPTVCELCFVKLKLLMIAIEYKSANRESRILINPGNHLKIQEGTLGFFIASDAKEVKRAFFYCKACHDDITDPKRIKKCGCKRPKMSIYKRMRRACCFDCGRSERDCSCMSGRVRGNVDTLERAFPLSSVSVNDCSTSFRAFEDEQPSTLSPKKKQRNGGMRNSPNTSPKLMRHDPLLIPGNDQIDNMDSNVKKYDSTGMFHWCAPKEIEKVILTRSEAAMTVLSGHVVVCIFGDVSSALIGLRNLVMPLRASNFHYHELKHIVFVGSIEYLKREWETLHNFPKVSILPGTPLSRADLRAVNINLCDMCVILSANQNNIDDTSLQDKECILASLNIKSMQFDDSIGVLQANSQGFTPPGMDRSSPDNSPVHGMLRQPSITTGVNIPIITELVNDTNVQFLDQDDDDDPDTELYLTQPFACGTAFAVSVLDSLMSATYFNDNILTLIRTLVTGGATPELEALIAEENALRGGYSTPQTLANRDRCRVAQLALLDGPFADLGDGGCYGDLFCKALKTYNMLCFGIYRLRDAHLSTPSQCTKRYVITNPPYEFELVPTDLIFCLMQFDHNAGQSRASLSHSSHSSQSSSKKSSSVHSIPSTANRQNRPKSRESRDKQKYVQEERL
Chain of BK currents, cloned α-hSlo and β-bSlo in CHO cells (Q28067 2-191 partner): as the sequence (Q28067 2-191 partner limits assumed) above

Turning to `Clc1cc(NCc2ccc3ccccc3c2)ccc1NCc1ccc2ccccc2c1` [Compound 15], the “Em effect: ratio of the compound effect compared to the maximal effect of NS004” value (from here on “Em effect: ratio of the compound effect”) in test [1] is “+++ (>1.5 = +++)”. The “Effect: ratio of current increase after application of compound relative to the control current before compound application” value in test [2] is “+ (1-1.1 = +)”. Consider `Clc1cc(NCc2ccc(Br)cc2)ccc1NCc1ccc(Br)cc1` [Compound 13, N^1,N^4-Bis-(4-bromobenzyl)-2-chlorobenzene-1,4-diamine], for which, in test [1], the “Em effect: ratio of the compound effect” value is “+++ (>1.5 = +++)”. The “Effect: ratio of current increase after application of compound relative to the control current before compound application” value in test [2] is “+++ (>1.2 = +++)”.

In the case of `Fc1cccc(CNc2cccc(NCc3cccc(F)c3)c2)c1` [Compound 35, N,N′-bis-(3-fluorobenzyl)-benzene-1,3-diaimine], the “Em effect: ratio of the compound effect” value in test [1] was “++ (>1-1.5 = ++)”. Moreover, the “Effect: ratio of current increase after application of compound relative to the control current before compound application” value in test [2] is on record as “+++ (>1.2 = +++)”. Turning to `FC(F)(F)c1cc(NCc2cccc(Cl)c2)cc(NCc2ccc3ccccc3c2)c1` [Compound 7, N-(3-Chlorobenzyl)-N′-naphthalen-2-ylmethyl-5-trifluoromethyl-benzene-1,3-diamine], the “Em effect: ratio of the compound effect” value in test [1] is “+++ (>1.5 = +++)”. Besides, in test [2], the “Effect: ratio of current increase after application of compound relative to the control current before compound application” value is “+ (1-1.1 = +)”. Regarding `FC(F)(F)c1cc(NCc2ccc(Br)cc2)cc(NCc2ccc3ccccc3c2)c1` [Compound 6, N-(4-Bromobenzyl)-N′-naphthalen-2-ylmethyl-5-trifluoromethylbenzene-1,3-diamine], the “Em effect: ratio of the compound effect” value in test [1] is reported as “+++ (>1.5 = +++)”. Further, the “Effect: ratio of current increase after application of compound relative to the control current before compound application” value in test [2] is on record as “++ (>1, 1-1.2 = ++)”.

Regarding `Clc1cccc(CNc2cccc(NCc3cccc(Cl)c3)c2)c1` [Compound 11], the “Em effect: ratio of the compound effect” value in test [1] is “+ (0-1 = +)”. Also, the “Effect: ratio of current increase after application of compound relative to the control current before compound application” value in test [2] was “+ (1-1.1 = +)”. In the same order, the values of `Clc1cccc(CNc2ccc(NCc3cccc(Cl)c3)c(Cl)c2)c1` [Compound 14] are “+++ (>1.5 = +++)” and “+ (1-1.1 = +)”. On to `FC(F)(F)c1cc(NCc2ccccc2Cl)cc(NCc2ccccc2Cl)c1` [Compound 75], for which, in test [1], the “Em effect: ratio of the compound effect” value is listed as “+ (0-1 = +)”. In the case of `Brc1ccc(CNc2cccc(NCc3ccc(Br)cc3)c2)cc1` [Compound 12], in test [1], the “Em effect: ratio of the compound effect” value was “+ (0-1 = +)”. Besides, in test [2], the “Effect: ratio of current increase after application of compound relative to the control current before compound application” value was “+ (1-1.1 = +)”.
